Where two headings read alike, the source gives them in different places.
Columns and labels:
Assay type in all cases: cell-based
Pyricularia oryzae = details: single active
Leptosphaeria nodorum = assay: Activity against wheat leaf spots caused by Leptosphaeria nodorum (Leptno), microtiter plate test; details: single active, 7 days after inoculation
Septoria tritici = assay: Activity against leaf blotch on wheat caused by Septoria tritici (Septtr), microtiter plate test; details: single active

Work on `O=C(Nc1ccccc1-c1ccc(Cl)cc1)c1cccnc1Cl` [Boscalid] yielded an Observed efficacy (Pyricularia oryzae; 16 ppm) of 8.
`Cc1cc(F)c(-n2cnc3ccc(F)cc3c2=O)cc1[S+]([O-])CC(F)(F)F` (stereo not drawn) [CE.I.31, 6-Fluoro-3-[2-fluoro-4-methyl-5-2(2,2,2-trifluoroethanesulfinyl)-phenyl]-3H-quinazolin-4-one] showed an Observed efficacy (Leptosphaeria nodorum; concentration 63 ppm) of 19, an Observed efficacy (Pyricularia oryzae; 1 ppm) of 8 and an Observed efficacy (Pyricularia oryzae; 4 ppm) of 11. For the same molecule, the Observed efficacy (Pyricularia oryzae; 63 ppm) was 16 and the Observed efficacy (Septoria tritici; 63 ppm) was 19.
`COC(=O)Nc1nc2ccccc2[nH]1` [Carbendazim] gave an Observed efficacy (Pyricularia oryzae; 0.25 ppm) of 19.
`N#Cc1c(Cl)c(Cl)c(Cl)c(C#N)c1Cl` [Chlorothalonil] showed an Observed efficacy (Pyricularia oryzae; 0.25 ppm) of 30.
Molecule `Cc1ccc(-c2c(Cl)nc(C#N)n2S(=O)(=O)N(C)C)cc1` [Cyazofamid] has an Observed efficacy (Pyricularia oryzae; 1 ppm) of 10.
`CO/N=C(/C1=NOCCO1)c1ccccc1Oc1ncnc(Oc2ccccc2Cl)c1F` [Fluoxastrobin] showed an Observed efficacy (Septoria tritici; 0.25 ppm) of 58.
Work on `Cn1cc(C(=O)Nc2ccccc2-c2cc(F)c(F)c(F)c2)c(C(F)F)n1` [Fluxapyroxad] yielded an Observed efficacy (Septoria tritici; 0.063 ppm) of 58.
`CO/C=C(/C(=O)OC)c1ccccc1COc1cccc(C(F)(F)F)n1` [Picoxystrobin] was tested, and the Observed efficacy (Pyricularia oryzae; 0.016 ppm) was 19.
Molecule `COC(=O)N(OC)c1ccccc1COc1ccn(-c2ccc(Cl)cc2)n1` [Pyraclostrobin] has an Observed efficacy (Pyricularia oryzae; 0.004 ppm) of 32.
Molecule `CON=C(C(=O)OC)c1ccccc1CON=C(C)c1cccc(C(F)(F)F)c1` [Trifloxystrobin] has an Observed efficacy (Pyricularia oryzae; 0.016 ppm) of 26.
Work on “zinc propylenebis(dithiocarbamate) polymer [Propineb, reference compound]” yielded an Observed efficacy (Leptosphaeria nodorum; concentration 4 ppm) of 57.
